Three molecules from patent US20250325684A1, “POTENT ANTI-CANCER CYCLOTIDES” (University of Southern California, priority 2022, published 2025) can be followed below.

Numbered stars: 1 amine (or outer) side, 2 acyl side, 3 side chain; on linkers, the order of the positions; unused ones are H or OH. Bridge positions count the residues as written; N and C are the ends. Square brackets hold non-standard residues; d marks the D form. Peptide text beside a SMILES is read from it. I, II: the chains in the order shown. X1 = O=C(CCc1cn(CCOCCOCCOCCC(=O)[*:2])nn1)[*:1]; isoGln = NC(=O)[C@H](CCC(=O)[*:2])N[*:1]

The test system of one assay is LoVo. Kind of assay: MTT cell viability, LoVo cells. To be noted: LoVo colon adenocarcinoma, p53 WT. Format: cell-based, human. The method, then: (§1) Cell viability assay in several human cancer cell lines (See Tables 1 to 10). Cell lines were cultured in RPMI 1640 (or recommended medium when indicated) medium supplemented with 10% fetal calf serum, penicillin (50 IU/mL) and streptomycin ([…]) at 37° C. in 5% CO2. Cell viability studies was carried using the MTT (3-(4,5-dimethylthiazol-2-yl)-2,5-diphenyltetrazolium bromide) assay as previously described (31). Briefly, ≈2×10^3 CRC cells were be seeded in 96-well microtiter plates in 100 μL RPMI 1640 in the presence of 10% calf serum. […] After 1 h, 210 μL/well of full complemented media was added, the cells were grown for 48 h and then treated with 20 μL of a solution of MTT (5 mg/mL) for 2 h. The medium was discarded and DMSO ([…]) was added to each well and incubated with gentle shaking for 20 min at room temperature. The absorbance at 595 nm of the solution is analyzed using a Tecan Genios Multifunctional Microplate Reader (Tecan System Inc) and the background at 670 nm subtracted. RNA-Seq analysis was performed using state-of-the-art bioinformatics tools. Briefly, raw RNA-Seq reads were mapped to human genome (hg38) using STAR aligner (v2.7.3a). Gencode Release 36 reference was used for annotation. Transcript and gene expression levels were quantified using the IsoEM (37) with default parameters. Counts per million (CPM) method is used for normalization. Differential expression was done using DESeq2 with default parameters. Genes involved in different biological pathways (human) were searched from Geneontology (http://geneontology.org/). Bioinformatics results can be validated by using Partek Flow (v10.0.21.0912), a bioinformatics pipeline developed by Zymo Research (https://www.zymoresearch.com/).
(§2) Cell viability was evaluated using the MTT assay as described above.

Another assay deals with DLD-1. Kind of assay: MTT cell viability, DLD-1 cells. It counts as cell-based, human. The following applies: DLD-1 colon adenocarcinoma, p53 Mutant. The method, then:
as §1, with “Counts per million (CPM) method is used for normalization. Differential expression was done using DESeq2 with default parameters. Genes involved in different biological pathways (human) were searched from Geneontology (http://geneontology.org/). Bioinformatics results can be validated by using Partek Flow (v10.0.21.0912), a bioinformatics pipeline developed by Zymo Research (https://www.zymoresearch.com/).” left out
as §2

For the next assay, the system named is SW620. Kind of assay: MTT cell viability, SW620 cells. Format: cell-based, human. To be noted: SW620 colon adenocarcinoma, p53 Mutant. The method, then: as §1, §2
For the next assay, the system named is Caco-2. As to the kind of experiment: MTT cell viability, Caco-2 cells. Format: cell-based, human. The following applies: Caco-2 colon adenocarcinoma, p53 Mutant. The method, then:
as §1, §2

The test system of a further assay is CT26. Kind of assay: MTT cell viability, CT26 cells. Format: cell-based. To be noted: CT26 murine colon cancer, p53 WT. The method, then: as §1, with “Counts per million (CPM) method is used for normalization. Differential expression was done using DESeq2 with default parameters. Genes involved in different biological pathways (human) were searched from Geneontology (http://geneontology.org/). Bioinformatics results can be validated by using Partek Flow (v10.0.21.0912), a bioinformatics pipeline developed by Zymo Research (https://www.zymoresearch.com/).” left out
as §2

The test system of a further assay is LLC-1. Kind of assay: MTT cell viability, LLC-1 cells. To be noted: LLC-1 murine lung cancer, p53 WT. It counts as cell-based. The method, then: as §1, with “Counts per million (CPM) method is used for normalization. Differential expression was done using DESeq2 with default parameters. Genes involved in different biological pathways (human) were searched from Geneontology (http://geneontology.org/). Bioinformatics results can be validated by using Partek Flow (v10.0.21.0912), a bioinformatics pipeline developed by Zymo Research (https://www.zymoresearch.com/).” left out
as §2

The next assay deals with Jurkat. As to the kind of experiment: MTT cell viability, Jurkat cells. Format: cell-based, human. To be noted: Jurkat childhood T acute lymphoblastic leukemia, p53 Mutant. The method, then:
as §1, §2

The next assay has as its system U937. As to the kind of experiment: MTT cell viability, U937 cells. Format: cell-based, human. To be noted: U937 adult acute monocytic leukemia, p53 Mutant. The method, then:
as §1, §2

The next assay has as its system MV4-11. As to the kind of experiment: MTT cell viability, MV4-11 cells. To be noted: MV4-11 childhood acute monocytic leukemia, p53 WT. Format: cell-based, human. The method, then: as §1, §2
The test system of the next assay is NCl-H1944. As to the kind of experiment: MTT cell viability, NCl-H1944 cells. It counts as cell-based, human. To be noted: NCl-H1944 lung adenocarcinoma, p53 WT. The method, then:
as §1, with “Counts per million (CPM) method is used for normalization. Differential expression was done using DESeq2 with default parameters. Genes involved in different biological pathways (human) were searched from Geneontology (http://geneontology.org/). Bioinformatics results can be validated by using Partek Flow (v10.0.21.0912), a bioinformatics pipeline developed by Zymo Research (https://www.zymoresearch.com/).” left out
as §2

In another assay the test system is NCl-H1395. As to the kind of experiment: MTT cell viability, NCl-H1395 cells. Format: cell-based, human. The following applies: NCl-H1395 lung adenocarcinoma, p53 WT. The method, then: as §1, with “Counts per million (CPM) method is used for normalization. Differential expression was done using DESeq2 with default parameters. Genes involved in different biological pathways (human) were searched from Geneontology (http://geneontology.org/). Bioinformatics results can be validated by using Partek Flow (v10.0.21.0912), a bioinformatics pipeline developed by Zymo Research (https://www.zymoresearch.com/).” left out
as §2

In a further assay the test system is NCl-H2347. As to the kind of experiment: MTT cell viability, NCl-H2347 cells. Format: cell-based, human. The following applies: NCl-H2347 lung adenocarcinoma, p53 Mutant. The method, then: as §1, with “Counts per million (CPM) method is used for normalization. Differential expression was done using DESeq2 with default parameters. Genes involved in different biological pathways (human) were searched from Geneontology (http://geneontology.org/). Bioinformatics results can be validated by using Partek Flow (v10.0.21.0912), a bioinformatics pipeline developed by Zymo Research (https://www.zymoresearch.com/).” left out
as §2

The test system of a further assay is NCl-H1975. Kind of assay: MTT cell viability, NCl-H1975 cells. It counts as cell-based, human. The following applies: NCl-H1975 lung adenocarcinoma, p53 Mutant. The method, then: as §1, with “Counts per million (CPM) method is used for normalization. Differential expression was done using DESeq2 with default parameters. Genes involved in different biological pathways (human) were searched from Geneontology (http://geneontology.org/). Bioinformatics results can be validated by using Partek Flow (v10.0.21.0912), a bioinformatics pipeline developed by Zymo Research (https://www.zymoresearch.com/).” left out
as §2

Another assay concerns NCl-H1299. Kind of assay: MTT cell viability, NCl-H1299 cells. Format: cell-based, human. The following applies: NCl-H1299 lung large cell carcinoma, p53 Null. The method, then: as §1, §2
A further assay relates to NCl-H69. As to the kind of experiment: MTT cell viability, NCl-H69 cells. The following applies: NCl-H69 lung small cell carcinoma, p53 Mutant. Format: cell-based, human. The method, then: as §1, §2
Another assay relates to NCl-H526. As to the kind of experiment: MTT cell viability, NCl-H526 cells. It counts as cell-based, human. To be noted: NCl-H526 lung small cell carcinoma, p53 Null. The method, then: as §1, §2
The next assay relates to LNCaP. Kind of assay: MTT cell viability, LNCaP cells. The following applies: LNCaP prostate carcinoma, p53 WT, read-out: Cell viability, Human Prostate Cancer Cells. Format: cell-based. The method, then:
Cell viability assay in several human cancer cell lines (See Tables 1 to 10). Cell lines were cultured in RPMI 1640 (or recommended medium when indicated) medium supplemented with 10% fetal calf serum, penicillin (50 IU/mL) and streptomycin ([…]) at 37° C. in 5% CO2. Cell viability studies was carried using the MTT (3-(4,5-dimethylthiazol-2-yl)-2,5-diphenyltetrazolium bromide) assay as previously described (31). Briefly, ≈2×10^3 CRC cells were be seeded in 96-well microtiter plates in 100 μL RPMI 1640 in the presence of 10% calf serum. After 24 h incubation the cells were washed with PBS and treated with 30 μL/well of PBS or RPMI 1640 (or recommended) media containing cyclotides MCo-52, MCoTI-I (used as negative control), nutlin-3a (used as positive control) or MI-77301 (used as positive control for p53-mutated or p53-null cells) at the indicated doses for 1 h at 37° C. in 5% CO2. After 1 h, 210 μL/well of full complemented media was added, the cells were grown for 48 h and then treated with 20 μL of a solution of MTT (5 mg/mL) for 2 h. The medium was discarded and DMSO ([…]) was added to each well and incubated with gentle shaking for 20 min at room temperature. The absorbance at 595 nm of the solution is analyzed using a Tecan Genios Multifunctional Microplate Reader (Tecan System Inc) and the background at 670 nm subtracted. RNA-Seq analysis was performed using state-of-the-art bioinformatics tools. Briefly, raw RNA-Seq reads were mapped to human genome (hg38) using STAR aligner (v2.7.3a). Gencode Release 36 reference was used for annotation. Transcript and gene expression levels were quantified using the IsoEM (37) with default parameters. Counts per million (CPM) method is used for normalization. Differential expression was done using DESeq2 with default parameters. Genes involved in different biological pathways (human) were searched from Geneontology (http://geneontology.org/). Bioinformatics results can be validated by using Partek Flow (v10.0.21.0912), a bioinformatics pipeline developed by Zymo Research (https://www.zymoresearch.com/).
Tables 1 through 10 show in vitro activity of cyclotide MCo-52-2-cTAT against different human cancer cell lines, some with null-, mutated, or wildtype p53 phenotypes. Cell viability was evaluated using the MTT assay as described above.

With `COc1ccc(C2=N[C@@H](c3ccc(Cl)cc3)[C@@H](c3ccc(Cl)cc3)N2C(=O)N2CCNC(=O)C2)c(OC(C)C)c1` [Nutlin 3A], the EC50 in the assay with LoVo was 1.5 ± 0.1 µM; with DLD-1, above 100 µM; with SW620, above 100 µM; in the assay with Caco-2, above 50 µM; with CT26, 9.8 ± 1.2 µM; in the assay with LLC-1 it was 9.4 ± 1.2 µM. Also, the EC50 is 45.2 ± 2.4 µM with Jurkat; above 50 µM in the assay on U937; 0.7 ± 0.1 µM with MV4-11; 22.1 µM in the assay on NCl-H1944; 23.1 ± 5.6 µM in the assay on NCl-H1395; 25.3 ± 5.5 µM in the assay with NCl-H2347. For the same molecule, the EC50 with NCl-H1975 is above 100 µM; with NCl-H1299, above 100 µM; in the assay on NCl-H69 it was above 50 µM; in the assay with NCl-H526, above 100 µM; in the assay with LNCaP it was 19.7 ± 1.3 µM.

Regarding `N=C(N)NCCC[C@@H]1NC(=O)[C@@H](CCCNC(=N)N)NC(=O)[C@H](CCCCN)NC(=O)[C@@H](N)CCCCNC(=O)CC[C@@H](C(=O)O)NC(=O)[C@@H](CCCNC(=N)N)NC(=O)[C@H](CCCNC(=N)N)NC(=O)[C@@H](CCCCN)NC(=O)[C@H](CCCCN)NC(=O)[C@@H](CCCNC(=N)N)NC(=O)CNC(=O)[C@@H](CCCNC(=N)N)NC1=O` [cTAT] (H-KK[dR]R[dR]G[dR]K[dK]R[dR]E-OH; lactam 1-12; N-terminus and C-terminus assumed), the EC50 in the assay with LoVo, in the assay with DLD-1, with SW620, in the assay with Caco-2, with CT26 and with LLC-1 was above 100 µM throughout. Besides, the EC50 in the assay on Jurkat, with U937, in the assay with MV4-11, with NCl-H1944, with NCl-H1395 and in the assay on NCl-H2347 was above 100 µM throughout. Further, the EC50 with NCl-H1975, with NCl-H1299, in the assay with NCl-H69, with NCl-H526 and in the assay with LNCaP was above 100 µM in each case.

As for “I: cyclo(ACICRHDSYCGSGSDGGVCPNLYLLCRRDKDCPG) / II: KK[dR]R[dR]G[dR]K[dK]R[dR][isoGln] (disulfide I:2-I:19, I:4-I:26, I:10-I:32; linker I:30-II:N via X1; lactam II:1-II:C) [Cyclotide 52-2-cTAT]”, the EC50 with LoVo was 10.7 ± 0.9 µM; with SW620 it was 15.3 ± 2 µM; in the assay with Caco-2, 11.7 ± 0.8 µM; with LNCaP it was 6.3 ± 1.1 µM.
